{
  "source": "patent US8415342B2",
  "about": "“Besifloxacin ophthalmic composition for the treatment or control of infection” (Bausch & Lomb Incorporated, priority 2008, dated 2013)",
  "key": {"[1]": {"test_system": "baseline pathogens of bacterial conjunctivitis patients", "test": "MIC of baseline clinical trial isolates, Studies 373, 433, 434 (all species)", "assay_type": "cell-based"}, "[2]": {"test": "Study 424: tear fluid pharmacokinetics after single topical ocular instillation in healthy volunteers", "assay_type": "in vivo, human", "description": "This study was conducted to evaluate the ocular PK of besifloxacin in tear fluid after a single instillation of besifloxacin ophthalmic suspension, 0.6%, in both eyes of healthy volunteers and to compare the actual besifloxacin exposure to MICs of the most prevalent pathogens associated with bacterial conjunctivitis.\nHealthy volunteers received a single instillation (37 μL by pipette) of besifloxacin ophthalmic suspension, 0.6%, in the conjunctival sac of each eye. A single tear sample was collected on a Schirmer tear strip from each healthy volunteer. […] Samples were analyzed using a validated LC/MS/MS method, and the LLOQ was 2 ng/mL (equivalent to approximately 0.2 μg/g for a 10-mg tear sample).\nMean tear concentration data were obtained from the per protocol (PP) set and the full analysis (FAS) set. For the purpose of this study, the PP set included all healthy volunteers with the exclusion of apparent outlier values. The FAS set included all healthy volunteers who received besifloxacin, and from whom all sampling data were available (no exclusion of outlier values)."}, "bacterial conjunctivitis": {"test_system": "bacterial conjunctivitis", "test": "Study 433: besifloxacin ophthalmic suspension vs vehicle, TID 5 days", "assay_type": "in vivo, human", "conditions": "N = 199; for Clinical Resolution (2 indices), No / Clinical Resolution (2 indices), Yes: mITT culture confirmed as randomized; for Microbial Eradication, No / Microbial Eradication, Yes: missing or discontinued imputed as no"}, "S. aureus": {"test_system": "S. aureus", "test": "In vitro multistep selection for besifloxacin-resistant mutants", "assay_type": "cell-based", "conditions": "for MIC: Staphylococcus aureus", "description": "(§1) Furthermore, an experiment was conducted to assess the mechanism of action of besifloxacin in S. pneumoniae, S. aureus, and E. coli via step selections for isolates with decreased susceptibility to besifloxacin, as well as by testing for altered susceptibilities of ciprofloxacin-resistant variants of all three species containing genetically defined mutations in the quinolone resistance determining regions (QRDRs) of structural genes encoding DNA gyrase and topoisomerase IV (Table 2).\n(§2) Besifloxacin is a potent antibacterial agent by virtue of its efficient biochemical inhibition of type II bacterial topoisomerases at low micromolar levels. Besifloxacin was associated with a low mutant prevention concentration (MPC), especially in the two Gram-positive pathogens, S. aureus and S. pneumoniae, in which the MPCs were only four times higher than the MICs for those organisms. Correspondingly, very few drug-resistant mutants were obtained in in vitro experiments for those two species (<1 mutant per 10^10 cells).\n(§3) As a consequence, strains with high-level resistance would only emerge if both targets were mutated simultaneously, an event that is not very likely in strains that lack predisposing mutations. A dual-targeting mechanism of action for besifloxacin is supported by the following experimental evidence: • In S. aureus and S. pneumoniae, single (1st step) mutants were extremely rare (<1/10^10 cells) and only few or no double (2nd step) mutants were obtained (Table 3). • Single mutations in the gyrA or in the parC gene were obtained in S. aureus as well as in S. pneumoniae. […] By comparison, all single mutations in quinolone-resistant strains of E. coli were mapped to either the gyrA or the gyrB gene consistent with the general finding that quinolones primarily target the DNA gyrase in Gram-negative bacteria. • Biochemical experiments with the purified DNA gyrase and topoisomerase IV enzymes from S. pneumoniae and E. coli were performed."}, "S. pneumoniae": {"test_system": "S. pneumoniae", "test": "In vitro multistep selection for besifloxacin-resistant mutants", "assay_type": "cell-based", "conditions": "for MIC: Streptococcus pneumoniae", "description": "as §1, §2, §3"}, "E. coli": {"test_system": "E. coli", "test": "In vitro multistep selection for besifloxacin-resistant mutants", "assay_type": "cell-based", "conditions": "for MIC: Escherichia coli", "description": "as §1, §2, §3"}, "[3]": {"test_system": "E. coli topoisomerase mutants", "test": "MIC against defined topoisomerase mutants", "assay_type": "cell-based", "conditions": "Escherichia coli", "description": "as §1"}, "[4]": {"test": "Systemic exposure after topical ocular administration to humans", "conditions": "human, in vivo, topical or ocular; following topical administration to humans", "description": "Topical ophthalmic use of besifloxacin is not expected to elicit any systemic effects."}, "[5]": {"conditions": "1324 clinical isolates of all species, Studies 373, 433, 434"}, "[6]": {"conditions": "Gram-negative bacteria (438 clinical isolates)"}, "[7]": {"conditions": "Gram-positive bacteria (886 clinical isolates)"}, "[8]": {"conditions": "both sexes, human, tear fluid, topical, 37 μL of 0.6% suspension per eye, tears, single instillation 0.6% suspension, healthy volunteers, FAS"}, "[9]": {"conditions": "both sexes, human, tear fluid, topical, 37 μL of 0.6% suspension per eye, tears, single instillation 0.6% suspension, healthy volunteers, PP"}, "[10]": {"conditions": "tears, single instillation 0.6% suspension, healthy volunteers, FAS"}, "[11]": {"conditions": "Visit 2 (Day 5 ± 1), primary endpoint"}, "[12]": {"conditions": "2nd step, NMO = No mutants obtained"}},
  "note": "Where two headings read alike, the source gives them in different places.",
  "data": [
    {"smiles": "N[C@@H]1CCCCN(c2c(F)cc3c(=O)c(C(=O)O)cn(C4CC4)c3c2Cl)C1", "note": "[Besifloxacin, (R)-(+)-(3-amino-2,3,4,5,6,7-hexahydro-1H-azepin-1-yl)-8-chloro-1-cyclopropyl-6-fluoro-1,4,-dihydro-4-oxo-3-quinolinecarboxylic acid]", "values": [
      {"measurement": "MIC50", "setting": "[1]; [5]", "result": 0.06, "unit": "µg/mL"},
      {"measurement": "MIC90", "setting": "[1]; [5]", "result": 0.25, "unit": "µg/mL"},
      {"measurement": "MIC50", "setting": "[1]; [6]", "result": 0.03, "unit": "µg/mL"},
      {"measurement": "MIC90", "setting": "[1]; [6]", "result": 0.5, "unit": "µg/mL"},
      {"measurement": "MIC50", "setting": "[1]; [7]", "result": 0.06, "unit": "µg/mL"},
      {"measurement": "MIC90", "setting": "[1]; [7]", "result": 0.25, "unit": "µg/mL"},
      {"measurement": "MIC90", "setting": "[1]; clinical isolates from Asia", "result": 1, "unit": "µg/mL"},
      {"measurement": "concentration at 24 h", "setting": "[2]; both sexes, human, tear fluid, topical, 37 μL of 0.6% suspension per eye, 0.6% suspension, human tears, read-out: mean concentration in tears at 24 hours (C24h)", "result": "1600 ± 2280", "unit": "ng/g"},
      {"measurement": "concentration at 24 h", "setting": "[2]; both sexes, human, tear fluid, topical, 37 μL of 0.6% suspension per eye, after a single dose of 0.6% suspension, humans, read-out: concentration in tears sustained for at least 24 hours", "result": "≥ 1600", "unit": "ng/g"},
      {"measurement": "Cmax", "setting": "[2]; [8]", "result": "610000 ± 540000", "unit": "ng/g"},
      {"measurement": "Tmax", "setting": "[2]; [8]", "result": 10.2, "unit": "min"},
      {"measurement": "half-life", "setting": "[2]; [8]", "result": 204, "unit": "min"},
      {"measurement": "Cmax", "setting": "[2]; [9]", "result": 811000, "unit": "ng/g"},
      {"measurement": "half-life", "setting": "[2]; [9]", "result": 211, "unit": "min"},
      {"measurement": "time of mean maximum concentration in tears after instillation", "setting": "[2]; single instillation, healthy volunteers", "result": "≤ 10", "unit": "min"},
      {"measurement": "AUC24", "setting": "[2]; [10]", "result": 1232, "unit": "µg·h/g"},
      {"measurement": "t1/2", "setting": "[2]; [10]", "result": 3.43, "unit": "h"},
      {"measurement": "AUC24", "setting": "[2]; tears, single instillation 0.6% suspension, healthy volunteers, PP", "result": 1523, "unit": "µg·h/g"},
      {"measurement": "Clinical Resolution (2 indices), No", "setting": "bacterial conjunctivitis; Visit 2 (Day 5 ± 1)", "result": "109 (54.8) n (%)"},
      {"measurement": "Microbial Eradication, No", "setting": "bacterial conjunctivitis; Visit 2 (Day 5 ± 1)", "result": "17 (8.5) n (%)"},
      {"measurement": "Clinical Resolution (2 indices), Yes", "setting": "bacterial conjunctivitis; [11]", "result": "90 (45.2) n (%)"},
      {"measurement": "Microbial Eradication, Yes", "setting": "bacterial conjunctivitis; [11]", "result": "182 (91.5) n (%)"},
      {"measurement": "Clinical Resolution (2 indices), No", "setting": "bacterial conjunctivitis; Visit 3 (Day 8 or 9)", "result": "31 (15.6) n (%)"},
      {"measurement": "Clinical Resolution (2 indices), Yes", "setting": "bacterial conjunctivitis; Visit 3 (Day 8 or 9)", "result": "168 (84.4) n (%)"},
      {"measurement": "Microbial Eradication, No", "setting": "bacterial conjunctivitis; Visit 3 (Day 8 or 9)", "result": "23 (11.6) n (%)"},
      {"measurement": "Microbial Eradication, Yes", "setting": "bacterial conjunctivitis; Visit 3 (Day 8 or 9)", "result": "176 (88.4) n (%)"},
      {"measurement": "MPC (Mutant prevention concentration)", "setting": "S. aureus; 1st step", "result": 0.12, "unit": "µg/mL"},
      {"measurement": "MSW (Mutant Selection Window)", "setting": "S. aureus; 1st step", "result": "0.03 to 0.06", "unit": "µg/mL"},
      {"measurement": "Mutation rate at 4 × MIC", "setting": "S. aureus; 1st step", "result": "3.3 × 10^−10"},
      {"measurement": "MPC (Mutant prevention concentration)", "setting": "S. aureus; 2nd step", "result": 0.25, "unit": "µg/mL"},
      {"measurement": "MSW (Mutant Selection Window)", "setting": "S. aureus; [12]", "result": "NMO"},
      {"measurement": "Mutation rate at 4 × MIC", "setting": "S. aureus; [12]", "result": "NMO"},
      {"measurement": "MIC", "setting": "S. aureus; 1st step", "result": 0.03, "unit": "µg/mL"},
      {"measurement": "MIC", "setting": "S. aureus; 2nd step", "result": 0.25, "unit": "µg/mL"},
      {"measurement": "frequency of drug-resistant (single, 1st step) mutants", "setting": "S. aureus; in vitro", "result": "< 1", "unit": "per 10^10 cells"},
      {"measurement": "MPC (Mutant prevention concentration)", "setting": "S. pneumoniae; 1st step", "result": 0.5, "unit": "µg/mL"},
      {"measurement": "MSW (Mutant Selection Window)", "setting": "S. pneumoniae; 1st step", "result": "0.12 to 0.25", "unit": "µg/mL"},
      {"measurement": "Mutation rate at 4 × MIC", "setting": "S. pneumoniae; 1st step", "result": "<7 × 10^−10"},
      {"measurement": "MPC (Mutant prevention concentration)", "setting": "S. pneumoniae; 2nd step", "result": "2 to 4", "unit": "µg/mL"},
      {"measurement": "MSW (Mutant Selection Window)", "setting": "S. pneumoniae; 2nd step", "result": "0.5 to 2", "unit": "µg/mL"},
      {"measurement": "Mutation rate at 4 × MIC", "setting": "S. pneumoniae; 2nd step", "result": "2.4 × 10^−8"},
      {"measurement": "MIC", "setting": "S. pneumoniae; 1st step", "result": 0.12, "unit": "µg/mL"},
      {"measurement": "MIC", "setting": "S. pneumoniae; 2nd step", "result": 0.5, "unit": "µg/mL"},
      {"measurement": "frequency of drug-resistant (single, 1st step) mutants", "setting": "S. pneumoniae; in vitro", "result": "< 1", "unit": "per 10^10 cells"},
      {"measurement": "MPC (Mutant prevention concentration)", "setting": "E. coli; 1st step", "result": 4, "unit": "µg/mL"},
      {"measurement": "MSW (Mutant Selection Window)", "setting": "E. coli; 1st step", "result": "0.12 to 2", "unit": "µg/mL"},
      {"measurement": "Mutation rate at 4 × MIC", "setting": "E. coli; 1st step", "result": "3.8 × 10^−8"},
      {"measurement": "MPC (Mutant prevention concentration)", "setting": "E. coli; 2nd step", "result": 16, "unit": "µg/mL"},
      {"measurement": "MSW (Mutant Selection Window)", "setting": "E. coli; 2nd step", "result": "2 to 8", "unit": "µg/mL"},
      {"measurement": "Mutation rate at 4 × MIC", "setting": "E. coli; 2nd step", "result": "6 × 10^−9"},
      {"measurement": "MIC", "setting": "E. coli; 1st step", "result": 0.12, "unit": "µg/mL"},
      {"measurement": "MIC", "setting": "E. coli; 2nd step", "result": 2, "unit": "µg/mL"},
      {"measurement": "MIC", "setting": "[3]; E. coli Wild type", "result": 0.12, "unit": "µg/mL"},
      {"measurement": "MIC", "setting": "[3]; E. coli gyrA D87Y (or S83L)", "result": 0.5, "unit": "µg/mL"},
      {"measurement": "MIC", "setting": "[3]; E. coli gyrA S83L + parC S80R", "result": 16, "unit": "µg/mL"},
      {"measurement": "MIC", "setting": "[3]; E. coli gyrA S83L + parE H445L", "result": 1, "unit": "µg/mL"},
      {"measurement": "MIC", "setting": "[3]; E. coli gyrB D426N", "result": 0.5, "unit": "µg/mL"},
      {"measurement": "Cmax", "setting": "[4]", "result": "~0.4", "unit": "ng/mL"}
    ]}
  ]
}
